Reference: publication PMC10132981, “Formate overflow drives toxic folate trapping in MTHFD1 inhibited cancer cells” (Nature Metabolism, 2023)
Like-named read-outs stand apart in the source and are kept apart here.

Experiments:
Assay in all cases: cells
HCT116 = tested on: HCT116; design: species or system SW620, SW620 MTHFD2-/-, PA-TU-8988T; Resazurin cell viability dose-response in 384-well plates, fluorescence at 595 nm, logistic fit; conditions: Homo sapiens, HCT-116, 96 h, Figure 1=Extended Data Fig. 2a; C=RPMI+GlutaMAX (10% FBS, 1% P/S); D=Vehicle; 96 h viability, no metabolite rescue (vehicle); read-out: EC50 compound
SW620 = tested on: SW620; design: species or system SW620 MTHFD2-/-, HCT116, PA-TU-8988T; Resazurin cell viability dose-response in 384-well plates, fluorescence at 595 nm, logistic fit; conditions: Homo sapiens, SW-620, 96 h, D=Vehicle, 96 h viability, no metabolite rescue (vehicle), read-out: EC50 compound
SW620 MTHFD2 -/- = tested on: SW620 MTHFD2 -/-; design: species or system HCT116, PA-TU-8988T; Resazurin cell viability dose-response in 384-well plates, fluorescence at 595 nm, logistic fit; conditions: Homo sapiens, SW-620, 96 h, C=RPMI+GlutaMAX (5% dFBS, 1% P/S), D=Vehicle, 96 h viability, no metabolite rescue (vehicle), read-out: EC50 compound
SW620 MTHFD2-/- = tested on: SW620 MTHFD2-/-; design: species or system HCT116, PA-TU-8988T; Resazurin cell viability dose-response in 384-well plates, fluorescence at 595 nm, logistic fit; conditions: Homo sapiens, SW-620, 96 h, C=RPMI+GlutaMAX (5% dFBS, 1% P/S), D=Vehicle, 96 h viability, no metabolite rescue (vehicle), read-out: EC50 compound
SW620 WT = tested on: SW620 WT; design: species or system SW620 MTHFD2-/-, HCT116, PA-TU-8988T; Resazurin cell viability dose-response in 384-well plates, fluorescence at 595 nm, logistic fit; conditions: Homo sapiens, SW-620, 96 h, D=Vehicle, 96 h viability, no metabolite rescue (vehicle), read-out: EC50 compound
PA-TU-8988T = tested on: PA-TU-8988T; design: species or system SW620, SW620 MTHFD2-/-, HCT116; Resazurin cell viability dose-response in 384-well plates, fluorescence at 595 nm, logistic fit; conditions: Homo sapiens, PaTu 8988t, 96 h, Figure 1=Extended Data Fig. 3e; C=DMEM+GlutaMAX (5% dFBS, 1% P/S); D=Vehicle; 96 h viability, no metabolite rescue (vehicle); read-out: EC50 compound
[1] = Figure 1=Extended Data Fig. 2b, C=RPMI+GlutaMAX (10% FBS, 1% P/S)
[2] = Figure 1=Extended Data Fig. 2c, C=RPMI+GlutaMAX (10% FBS, 1% P/S)
[3] = C=RPMI+GlutaMAX (5% FBS, 1% P/S)
[4] = Figure 1=Extended Data Fig. 3b, C=RPMI+GlutaMAX (5% dFBS, 1% P/S)
[5] = Figure 1=Extended Data Fig. 3c, C=RPMI+GlutaMAX (5% dFBS, 1% P/S)

Compound: O=c1[nH]cc(F)c(=O)[nH]1 [5-FU]
- EC50 (HCT116): 2.14 µM
- EC50 (SW620; Figure 1=2f, C=RPMI+GlutaMAX (10% FBS, 1% P/S)): 5.35 µM
- EC50 (SW620; [1]): 5.17 µM
- EC50 (SW620; [2]): 4.63 µM

Compound: Cc1c(N2CCN(C)[C@@H](C)C2)ccc2c3c(c(=O)oc12)CN(C(=O)c1ccc(NS(C)(=O)=O)c(OC(F)(F)F)c1)CC3 [DS18561882]
- EC50 (SW620 MTHFD2 -/-; Figure 1=3o): 0.551 µM
- EC50 (SW620 MTHFD2 -/-; Figure 1=Extended Data Fig. 3d): 0.0574 µM
- EC50 (SW620 MTHFD2-/-; Figure 1=6f): 0.162 µM
- EC50 (SW620; [3]): > 10 µM
- EC50 (SW620; Figure 1=1d, C=RPMI+GlutaMAX (10% FBS, 1% P/S)): 0.491 µM
- EC50 (SW620; Figure 1=3d, C=RPMI+GlutaMAX (5% dFBS, 1% P/S)): 0.954 µM
- EC50 (SW620; Figure 1=Extended Data Fig.5d, C=RPMI+GlutaMAX (5% dFBS, 1% P/S)): 0.32 µM
- EC50 (SW620 WT; Figure 1=3k, C=RPMI+GlutaMAX (5% dFBS, 1% P/S)): 0.954 µM
- EC50 (SW620 WT; [4]): 0.772 µM

Compound: CN(Cc1cnc2nc(N)nc(N)c2n1)c1ccc(C(=O)N[C@@H](CCC(=O)O)C(=O)O)cc1 [MTX]
- EC50 (PA-TU-8988T): 0.0308 µM
- EC50 (SW620 MTHFD2 -/-; Figure 1=3n): 0.00107 µM
- EC50 (SW620 MTHFD2 -/-; Figure 1=Extended Data Fig. 3d): 0.00509 µM
- EC50 (SW620 MTHFD2-/-; Figure 1=6e): 0.00121 µM
- EC50 (HCT116): 0.00948 µM
- EC50 (SW620; C=HPLM (5% dFBS, 1% P/S)): 0.027 µM
- EC50 (SW620; [3]): 0.0123 µM
- EC50 (SW620; Figure 1=2e, C=RPMI+GlutaMAX (10% FBS, 1% P/S)): 0.017 µM
- EC50 (SW620; Figure 1=3c, C=RPMI+GlutaMAX (5% dFBS, 1% P/S)): 0.00712 µM
- EC50 (SW620; [1]): 0.00921 µM
- EC50 (SW620; [2]): 0.00996 µM
- EC50 (SW620; Figure 1=Extended Data Fig.5c, C=RPMI+GlutaMAX (5% dFBS, 1% P/S)): 0.0106 µM
- EC50 (SW620 WT; Figure 1=3j, C=RPMI+GlutaMAX (5% dFBS, 1% P/S)): 0.00636 µM
- EC50 (SW620 WT; Figure 1=6k, C=RPMI+GlutaMAX (5% dFBS, 1% P/S)): 0.00599 µM
- EC50 (SW620 WT; [4]): 0.00733 µM
- EC50 (SW620 WT; [5]): 0.00652 µM

Compound: Cc1[nH]nc2c1C(c1cc(CO)cc(-c3ccccc3)c1)(C(C)C)C(C#N)=C(N)O2 (stereo not drawn) [SHIN1]
- EC50 (SW620 MTHFD2-/-; Figure 1=6g): 0.00235 µM
- EC50 (SW620; Figure 1=1e, C=RPMI+GlutaMAX (10% FBS, 1% P/S)): 1.6 µM

Compound: Nc1nc(N)c(CC(=O)Nc2cnc(C(=O)N[C@@H](CCC(=O)O)C(=O)O)c(F)c2)c(=O)[nH]1 [TH9619]
- EC50 (PA-TU-8988T): 0.0222 µM
- EC50 (SW620 MTHFD2 -/-; Figure 1=3l): 0.000626 µM
- EC50 (SW620 MTHFD2 -/-; Figure 1=Extended Data Fig. 3d): 0.00171 µM
- EC50 (SW620 MTHFD2-/-; Figure 1=6c): 0.00124 µM
- EC50 (HCT116): 0.0524 µM
- EC50 (SW620; C=HPLM (5% dFBS, 1% P/S)): 0.0113 µM
- EC50 (SW620; [3]): 0.0249 µM
- EC50 (SW620; Figure 1=1b, C=RPMI+GlutaMAX (10% FBS, 1% P/S)): 0.0206 µM
- EC50 (SW620; Figure 1=3a, C=RPMI+GlutaMAX (5% dFBS, 1% P/S)): 0.603 µM
- EC50 (SW620; [1]): 0.0278 µM
- EC50 (SW620; [2]): 0.0219 µM
- EC50 (SW620; Figure 1=Extended Data Fig. 5j, C=RPMI+GlutaMAX (5% dFBS, 1% P/S)): 0.258 µM
- EC50 (SW620; Figure 1=Extended Data Fig.5a, C=RPMI+GlutaMAX (5% dFBS, 1% P/S)): 0.572 µM
- EC50 (SW620; Figure 1=Extended Data Fig.5f, C=RPMI+GlutaMAX (5% dFBS, 1% P/S)): 0.439 µM
- EC50 (SW620; Figure 1=Extended Data Fig.5h, C=RPMI+GlutaMAX (5% dFBS, 1% P/S)): 0.239 µM
- EC50 (SW620 WT; Figure 1=6i, C=RPMI+GlutaMAX (5% dFBS, 1% P/S)): 1.42 µM
- EC50 (SW620 WT; Figure 1=3h, C=RPMI+GlutaMAX (5% dFBS, 1% P/S)): 0.993 µM
- EC50 (SW620 WT; [4]): 0.562 µM
- EC50 (SW620 WT; [5]): 0.694 µM
- EC50 (SW620 WT; Figure 1=Extended Data Fig. 3f, C=RPMI+GlutaMAX (5% dFBS, 1% P/S, 10 uM Hypoxanthine)): 0.0169 µM
